According to paper PMC6591251, “Discovery of potent necroptosis inhibitors targeting RIPK1 kinase activity for the treatment of inflammatory disorder and cancer metastasis” (Cell Death & Disease, 2019):

Assays:
Assay in all cases: RBC kinase panel
Type in all cases: biochemical
Conditions in all cases: ATP 10 μM, Data1, Data2
Aurora B = biological target: T1, Aurora B (Homo sapiens, UniProt Q96GD4)
T1 construct: purchased Reaction Biology Corporation
Outline: (§1)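 ATP was held at 10 μM in all reactions while the compound, at 1 μM, was profiled against 369 human kinases; each measurement was run twice.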

BLK = biological target: T2, BLK (Homo sapiens, UniProt P51451)
T2 construct: purchased Reaction Biology Corporation
Outline: as §1

CAMK2b = biological target: T3, CAMK2b (Homo sapiens, UniProt Q13554)
T3 construct: purchased Reaction Biology Corporation
Outline: as §1

CDK2/cyclin E = biological target: T4, CDK2/cyclin E (Homo sapiens, UniProt P24941)
T4 construct: purchased Reaction Biology Corporation
Outline: as §1

CDK3/cyclin E = biological target: T5, CDK3/cyclin E (Homo sapiens, UniProt Q00526)
T5 construct: purchased Reaction Biology Corporation
Outline: as §1

CDK5/p25 = biological target: T6, CDK5/p25 (Homo sapiens, UniProt Q00535)
T6 construct: purchased Reaction Biology Corporation
Outline: as §1

CHK1 = biological target: T7, CHK1 (Homo sapiens, UniProt O14757)
T7 construct: purchased Reaction Biology Corporation
Outline: as §1

CHK2 = biological target: T8, CHK2 (Homo sapiens, UniProt O96017)
T8 construct: purchased Reaction Biology Corporation
Outline: as §1

CLK2 = biological target: T9, CLK2 (Homo sapiens, UniProt P49760)
T9 construct: purchased Reaction Biology Corporation
Outline: as §1

DYRK1/DYRK1A = biological target: T10, DYRK1/DYRK1A (Homo sapiens, UniProt Q13627)
T10 construct: purchased Reaction Biology Corporation
Outline: as §1

EGFR = biological target: T11, EGFR (Homo sapiens, UniProt P00533)
T11 construct: purchased Reaction Biology Corporation
Outline: as §1

ERK7/MAPK15 = biological target: T12, ERK7/MAPK15 (Homo sapiens, UniProt Q8TD08)
T12 construct: purchased Reaction Biology Corporation
Outline: as §1

ERN2/IRE2 = biological target: T13, ERN2/IRE2 (Homo sapiens, UniProt Q76MJ5)
T13 construct: purchased Reaction Biology Corporation
Outline: as §1

FGR = biological target: T14, FGR (Homo sapiens, UniProt P09769)
T14 construct: purchased Reaction Biology Corporation
Outline: as §1

HCK = biological target: T15, HCK (Homo sapiens, UniProt P08631)
T15 construct: purchased Reaction Biology Corporation
Outline: as §1

IGF1R = biological target: T16, IGF1R (Homo sapiens, UniProt P08069)
T16 construct: purchased Reaction Biology Corporation
Outline: as §1

JNK3 = biological target: T17, JNK3 (Homo sapiens, UniProt P53779)
T17 construct: purchased Reaction Biology Corporation
Outline: as §1

MARK2/PAR-1Ba = biological target: T18, MARK2/PAR-1Ba (Homo sapiens, UniProt Q7KZI7)
T18 construct: purchased Reaction Biology Corporation
Outline: as §1

MKK6 = biological target: T19, MKK6 (Homo sapiens, UniProt P52564)
T19 construct: purchased Reaction Biology Corporation
Outline: as §1

MLCK2/MYLK2 = biological target: T20, MLCK2/MYLK2 (Homo sapiens, UniProt Q9H1R3)
T20 construct: purchased Reaction Biology Corporation
Outline: as §1

MLK1/MAP3K9 = biological target: T21, MLK1/MAP3K9 (Homo sapiens, UniProt P80192)
T21 construct: purchased Reaction Biology Corporation
Outline: as §1

MNK2 = biological target: T22, MNK2 (Homo sapiens, UniProt Q9HBH9)
T22 construct: purchased Reaction Biology Corporation
Outline: as §1

MYLK3 = biological target: T23, MYLK3 (Homo sapiens, UniProt Q32MK0)
T23 construct: purchased Reaction Biology Corporation
Outline: as §1

MYLK4 = biological target: T24, MYLK4 (Homo sapiens, UniProt Q86YV6)
T24 construct: purchased Reaction Biology Corporation
Outline: as §1

PAK5 = biological target: T25, PAK5 (Homo sapiens, UniProt Q9P286)
T25 construct: purchased Reaction Biology Corporation
Outline: as §1

PASK = biological target: T26, PASK (Homo sapiens, UniProt Q96RG2)
T26 construct: purchased Reaction Biology Corporation
Outline: as §1

PLK2 = biological target: T27, PLK2 (Homo sapiens, UniProt Q9NYY3)
T27 construct: purchased Reaction Biology Corporation
Outline: as §1

STK39/STLK3 = biological target: T28, STK39/STLK3 (Homo sapiens, UniProt Q9UEW8)
T28 construct: purchased Reaction Biology Corporation
Outline: as §1

TTBK1 = biological target: T29, TTBK1 (Homo sapiens, UniProt Q5TCY1)
T29 construct: purchased Reaction Biology Corporation
Outline: as §1

WNK2 = biological target: T30, WNK2 (Homo sapiens, UniProt Q9Y3S1)
T30 construct: purchased Reaction Biology Corporation
Outline: as §1

ZAK/MLTK = biological target: T31, ZAK/MLTK (Homo sapiens, UniProt Q9NYL2)
T31 construct: purchased Reaction Biology Corporation
Outline: as §1

ZAP70 = biological target: T32, ZAP70 (Homo sapiens, UniProt P43403)
T32 construct: purchased Reaction Biology Corporation
Outline: as §1

c-MER = biological target: T33, c-MER (Homo sapiens, UniProt Q12866)
T33 construct: purchased Reaction Biology Corporation
Outline: as §1

T11 sequence (P00533 25-1210): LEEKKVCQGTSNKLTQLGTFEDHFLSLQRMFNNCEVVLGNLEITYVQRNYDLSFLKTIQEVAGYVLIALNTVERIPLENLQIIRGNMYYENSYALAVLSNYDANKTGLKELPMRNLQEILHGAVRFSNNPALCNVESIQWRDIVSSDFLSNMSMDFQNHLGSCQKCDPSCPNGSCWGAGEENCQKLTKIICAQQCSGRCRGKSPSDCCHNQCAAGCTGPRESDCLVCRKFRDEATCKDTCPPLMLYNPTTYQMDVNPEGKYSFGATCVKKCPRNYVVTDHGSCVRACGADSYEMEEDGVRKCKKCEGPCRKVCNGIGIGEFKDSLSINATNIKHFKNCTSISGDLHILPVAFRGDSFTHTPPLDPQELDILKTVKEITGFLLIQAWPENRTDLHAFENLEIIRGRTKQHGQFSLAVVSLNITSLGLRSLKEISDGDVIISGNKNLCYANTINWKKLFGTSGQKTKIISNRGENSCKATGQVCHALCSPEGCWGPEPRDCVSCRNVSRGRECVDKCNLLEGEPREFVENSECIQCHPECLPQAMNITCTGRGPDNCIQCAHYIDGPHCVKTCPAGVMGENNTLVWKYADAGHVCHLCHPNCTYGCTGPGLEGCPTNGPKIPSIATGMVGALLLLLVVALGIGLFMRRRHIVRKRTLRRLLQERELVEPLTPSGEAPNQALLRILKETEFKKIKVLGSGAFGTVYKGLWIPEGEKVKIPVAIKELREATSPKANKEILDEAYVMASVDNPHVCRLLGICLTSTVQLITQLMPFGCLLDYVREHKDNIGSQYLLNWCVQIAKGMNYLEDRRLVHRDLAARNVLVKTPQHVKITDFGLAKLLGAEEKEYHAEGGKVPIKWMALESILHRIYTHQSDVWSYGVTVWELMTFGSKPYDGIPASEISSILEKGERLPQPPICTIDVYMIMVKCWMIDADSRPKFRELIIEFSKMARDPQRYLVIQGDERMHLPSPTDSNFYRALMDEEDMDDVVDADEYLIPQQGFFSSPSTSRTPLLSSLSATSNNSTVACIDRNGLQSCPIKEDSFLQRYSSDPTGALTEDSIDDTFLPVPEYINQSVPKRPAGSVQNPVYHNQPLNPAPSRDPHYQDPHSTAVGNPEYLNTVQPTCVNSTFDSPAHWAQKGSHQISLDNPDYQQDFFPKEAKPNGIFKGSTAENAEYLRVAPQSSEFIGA
T7 sequence (O14757 whole entry): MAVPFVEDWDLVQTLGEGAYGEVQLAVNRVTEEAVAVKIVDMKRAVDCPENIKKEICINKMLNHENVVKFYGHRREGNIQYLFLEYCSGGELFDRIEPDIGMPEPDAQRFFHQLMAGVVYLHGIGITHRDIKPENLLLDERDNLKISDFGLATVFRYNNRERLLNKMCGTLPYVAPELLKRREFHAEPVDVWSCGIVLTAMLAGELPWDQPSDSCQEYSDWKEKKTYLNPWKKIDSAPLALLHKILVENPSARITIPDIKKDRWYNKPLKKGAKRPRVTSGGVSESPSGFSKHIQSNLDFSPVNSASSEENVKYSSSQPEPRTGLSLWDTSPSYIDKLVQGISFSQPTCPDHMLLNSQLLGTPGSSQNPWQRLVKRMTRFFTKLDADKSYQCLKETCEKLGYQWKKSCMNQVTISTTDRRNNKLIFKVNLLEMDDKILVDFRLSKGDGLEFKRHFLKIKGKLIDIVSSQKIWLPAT
T17 sequence (P53779 whole entry): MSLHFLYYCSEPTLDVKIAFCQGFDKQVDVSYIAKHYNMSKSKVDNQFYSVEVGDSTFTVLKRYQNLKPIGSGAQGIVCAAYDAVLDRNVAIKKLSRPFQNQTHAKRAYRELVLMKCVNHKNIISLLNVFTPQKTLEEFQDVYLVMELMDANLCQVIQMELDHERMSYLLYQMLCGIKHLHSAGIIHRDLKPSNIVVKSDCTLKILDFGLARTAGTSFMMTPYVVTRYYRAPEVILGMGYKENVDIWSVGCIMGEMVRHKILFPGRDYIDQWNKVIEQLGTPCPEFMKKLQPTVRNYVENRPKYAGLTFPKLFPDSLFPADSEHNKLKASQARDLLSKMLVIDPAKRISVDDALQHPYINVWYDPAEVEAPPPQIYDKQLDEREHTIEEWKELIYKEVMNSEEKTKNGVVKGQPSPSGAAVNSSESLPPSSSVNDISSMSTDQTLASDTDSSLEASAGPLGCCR
T19 sequence (P52564 whole entry): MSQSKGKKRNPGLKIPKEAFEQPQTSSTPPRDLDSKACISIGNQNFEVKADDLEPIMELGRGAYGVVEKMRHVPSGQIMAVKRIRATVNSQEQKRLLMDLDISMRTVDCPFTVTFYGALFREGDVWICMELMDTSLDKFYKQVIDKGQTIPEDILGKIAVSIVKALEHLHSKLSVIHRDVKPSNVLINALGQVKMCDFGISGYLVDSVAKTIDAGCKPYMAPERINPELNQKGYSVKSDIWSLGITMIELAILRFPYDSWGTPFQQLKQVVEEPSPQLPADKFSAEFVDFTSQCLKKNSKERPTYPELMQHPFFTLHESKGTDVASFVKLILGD
T8 sequence (O96017 whole entry): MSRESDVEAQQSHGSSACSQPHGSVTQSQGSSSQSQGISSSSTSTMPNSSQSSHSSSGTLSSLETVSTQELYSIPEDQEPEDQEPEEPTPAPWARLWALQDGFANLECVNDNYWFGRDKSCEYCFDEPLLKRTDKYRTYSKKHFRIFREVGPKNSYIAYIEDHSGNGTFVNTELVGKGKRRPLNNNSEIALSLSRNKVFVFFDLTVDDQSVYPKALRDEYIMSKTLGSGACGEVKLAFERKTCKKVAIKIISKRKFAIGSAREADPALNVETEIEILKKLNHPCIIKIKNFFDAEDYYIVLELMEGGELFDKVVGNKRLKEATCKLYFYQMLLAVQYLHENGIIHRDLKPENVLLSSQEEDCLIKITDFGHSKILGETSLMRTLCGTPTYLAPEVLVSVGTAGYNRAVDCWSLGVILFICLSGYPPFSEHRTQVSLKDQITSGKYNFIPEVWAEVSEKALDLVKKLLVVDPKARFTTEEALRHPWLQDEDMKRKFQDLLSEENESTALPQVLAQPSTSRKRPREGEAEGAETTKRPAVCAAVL
T25 sequence (Q9P286 whole entry): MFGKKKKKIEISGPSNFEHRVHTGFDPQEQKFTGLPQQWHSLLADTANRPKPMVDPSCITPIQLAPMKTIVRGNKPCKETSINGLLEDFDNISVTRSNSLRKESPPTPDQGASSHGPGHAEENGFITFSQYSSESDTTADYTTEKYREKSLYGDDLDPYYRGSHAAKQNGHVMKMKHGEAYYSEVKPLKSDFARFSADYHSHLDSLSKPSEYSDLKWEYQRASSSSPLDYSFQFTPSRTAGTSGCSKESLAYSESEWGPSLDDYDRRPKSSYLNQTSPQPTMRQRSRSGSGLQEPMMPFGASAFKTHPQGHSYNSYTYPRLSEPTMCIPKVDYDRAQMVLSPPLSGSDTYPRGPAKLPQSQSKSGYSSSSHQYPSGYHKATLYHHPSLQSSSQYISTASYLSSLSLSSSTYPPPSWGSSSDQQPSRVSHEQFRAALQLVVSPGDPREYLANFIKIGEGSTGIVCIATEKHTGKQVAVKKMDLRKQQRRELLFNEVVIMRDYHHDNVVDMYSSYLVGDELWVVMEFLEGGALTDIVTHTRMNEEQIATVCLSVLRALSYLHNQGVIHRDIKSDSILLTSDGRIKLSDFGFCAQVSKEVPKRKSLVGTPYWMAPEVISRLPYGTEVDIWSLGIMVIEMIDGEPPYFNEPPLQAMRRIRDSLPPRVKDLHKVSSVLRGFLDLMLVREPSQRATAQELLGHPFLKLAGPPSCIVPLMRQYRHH
T18 sequence (Q7KZI7 whole entry): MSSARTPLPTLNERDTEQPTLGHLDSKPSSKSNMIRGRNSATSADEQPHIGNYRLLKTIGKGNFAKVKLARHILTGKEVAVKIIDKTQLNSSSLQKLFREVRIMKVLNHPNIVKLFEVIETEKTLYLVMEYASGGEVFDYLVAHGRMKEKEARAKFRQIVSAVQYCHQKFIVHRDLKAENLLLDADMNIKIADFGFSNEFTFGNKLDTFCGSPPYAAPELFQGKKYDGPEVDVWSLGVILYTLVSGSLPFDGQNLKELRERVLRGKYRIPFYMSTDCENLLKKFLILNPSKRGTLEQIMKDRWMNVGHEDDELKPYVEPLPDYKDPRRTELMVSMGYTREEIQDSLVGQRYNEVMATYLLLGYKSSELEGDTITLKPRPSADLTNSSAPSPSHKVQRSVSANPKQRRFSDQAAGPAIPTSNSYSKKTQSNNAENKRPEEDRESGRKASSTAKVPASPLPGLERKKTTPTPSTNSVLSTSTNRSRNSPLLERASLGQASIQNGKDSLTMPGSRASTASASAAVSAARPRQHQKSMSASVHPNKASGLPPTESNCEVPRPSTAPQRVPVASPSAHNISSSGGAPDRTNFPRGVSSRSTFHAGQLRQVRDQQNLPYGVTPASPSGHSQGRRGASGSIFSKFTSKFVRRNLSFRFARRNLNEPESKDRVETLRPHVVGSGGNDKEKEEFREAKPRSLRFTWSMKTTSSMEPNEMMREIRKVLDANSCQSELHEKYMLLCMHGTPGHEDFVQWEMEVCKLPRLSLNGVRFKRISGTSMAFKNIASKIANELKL
T9 sequence (P49760 whole entry): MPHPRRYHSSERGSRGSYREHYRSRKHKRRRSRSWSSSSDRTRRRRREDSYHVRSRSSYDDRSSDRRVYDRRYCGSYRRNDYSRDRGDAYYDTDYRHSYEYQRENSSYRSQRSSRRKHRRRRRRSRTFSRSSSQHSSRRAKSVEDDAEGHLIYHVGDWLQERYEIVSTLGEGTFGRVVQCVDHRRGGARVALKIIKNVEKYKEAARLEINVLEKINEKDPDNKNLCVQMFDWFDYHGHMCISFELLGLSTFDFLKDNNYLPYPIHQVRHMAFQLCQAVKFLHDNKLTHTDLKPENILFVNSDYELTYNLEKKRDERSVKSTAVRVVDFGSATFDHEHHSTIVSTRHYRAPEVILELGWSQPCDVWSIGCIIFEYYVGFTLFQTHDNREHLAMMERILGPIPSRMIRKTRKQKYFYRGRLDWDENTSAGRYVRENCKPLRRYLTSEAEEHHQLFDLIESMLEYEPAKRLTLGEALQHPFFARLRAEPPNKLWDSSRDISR

## CC(=O)Nc1nc2ccc(-c3cnc(C)c(NC(=O)OC4CCCCC4)c3)cc2s1 [PK68, cyclohexyl (5-(2-acetamidobenzo[d]thiazol-6-yl)-2-methylpyridin-3-yl)carbamate]
Aurora B; 1 μM
  Activity%: 83.50%
Aurora B
  activity at 1 µM: 83.7%
BLK; 1 μM
  Activity%: 93.58%
BLK
  activity at 1 µM: 95.4%
CAMK2b; 1 μM
  Activity%: 99.42%
CAMK2b
  activity at 1 µM: 102%
CDK2/cyclin E; 1 μM
  Activity%: 91.99%
CDK2/cyclin E
  activity at 1 µM: 93.5%
CDK3/cyclin E; 1 μM
  Activity%: 91.48%
CDK3/cyclin E
  activity at 1 µM: 91.7%
CDK5/p25; 1 μM
  Activity%: 92.68%
CDK5/p25
  activity at 1 µM: 94.1%
CHK1; 1 μM
  Activity%: 87.21%
CHK1
  activity at 1 µM: 87.3%
CHK2; 1 μM
  Activity%: 98.81%
CHK2
  activity at 1 µM: 99.1%
CLK2; 1 μM
  Activity%: 77.67%
CLK2
  activity at 1 µM: 80.5%
DYRK1/DYRK1A; 1 μM
  Activity%: 95.93%
DYRK1/DYRK1A
  activity at 1 µM: 97.4%
EGFR; 1 μM
  Activity%: 99.30%
EGFR
  activity at 1 µM: 99.7%
ERK7/MAPK15; 1 μM
  Activity%: 96.80%
ERK7/MAPK15
  activity at 1 µM: 99.3%
ERN2/IRE2; 1 μM
  Activity%: 92.56%
ERN2/IRE2
  activity at 1 µM: 93.1%
FGR; 1 μM
  Activity%: 82.32%
FGR
  activity at 1 µM: 87.2%
HCK; 1 μM
  Activity%: 100.14%
HCK
  activity at 1 µM: 102%
IGF1R; 1 μM
  Activity%: 103.88%
IGF1R
  activity at 1 µM: 104%
JNK3; 1 μM
  Activity%: 99.15%
JNK3
  activity at 1 µM: 101%
MARK2/PAR-1Ba; 1 μM
  Activity%: 107.76%
MARK2/PAR-1Ba
  activity at 1 µM: 110%
MKK6; 1 μM
  Activity%: 107.08%
MKK6
  activity at 1 µM: 109%
MLCK2/MYLK2; 1 μM
  Activity%: 50.92%
MLCK2/MYLK2
  activity at 1 µM: 51.3%
MLK1/MAP3K9; 1 μM
  Activity%: 99.64%
MLK1/MAP3K9
  activity at 1 µM: 99.7%
MNK2; 1 μM
  Activity%: 88.77%
MNK2
  activity at 1 µM: 90.5%
MYLK3; 1 μM
  Activity%: 100.10%
MYLK3
  activity at 1 µM: 101%
MYLK4; 1 μM
  Activity%: 89.75%
MYLK4
  activity at 1 µM: 92.7%
PAK5; 1 μM
  Activity%: 98.16%
PAK5
  activity at 1 µM: 102%
PASK; 1 μM
  Activity%: 91.47%
PASK
  activity at 1 µM: 93%
PLK2; 1 μM
  Activity%: 102.02%
PLK2
  activity at 1 µM: 102%
STK39/STLK3; 1 μM
  Activity%: 92.54%
STK39/STLK3
  activity at 1 µM: 95.8%
TTBK1; 1 μM
  Activity%: 107.17%
TTBK1
  activity at 1 µM: 110%
WNK2; 1 μM
  Activity%: 94.21%
WNK2
  activity at 1 µM: 94.6%
ZAK/MLTK; 1 μM
  Activity%: 66.51%
ZAK/MLTK
  activity at 1 µM: 68.6%
ZAP70; 1 μM
  Activity%: 105.87%
ZAP70
  activity at 1 µM: 107%
c-MER; 1 μM
  Activity%: 84.20%
c-MER
  activity at 1 µM: 86%
